Values quoted from earlier work as cited in US6395309B1, “Use of an extract of Alchemilla vulgaris to inhibit angiogenesis” (Weber & Weber GmbH & Co. KG, priority 1998, dated 2002).

Columns and labels:
[1] = clinically tested

| SMILES | histamine release from mast cells (mast cells) | toxic effects on clinical testing [1] |
| --- | --- | --- |
| O=c1c(O)c(-c2ccc(O)cc2)oc2cc(O)cc(O)c12 [Campherol] | inhibits histamine release | – |
| Cc1ccc(C(=O)Nc2ccc(S(=O)(=O)O)c3cc(S(=O)(=O)O)cc(S(=O)(=O)O)c23)cc1NC(=O)c1cccc(NC(=O)Nc2cccc(C(=O)Nc3cc(C(=O)Nc4ccc(S(=O)(=O)O)c5cc(S(=O)(=O)O)cc(S(=O)(=O)O)c45)ccc3C)c2)c1 [Sumarin] | – | therapeutic use is questionable because of toxic effects |
